{
  "source": "paper PMC8805037",
  "about": "“Ready access to 7,8-dihydroindolo[2,3-d][1]benzazepine-6(5H)-one scaffold and analogues via early-stage Fischer ring-closure reaction” (Beilstein Journal of Organic Chemistry, 2022)",
  "target": "proto-oncogene tyrosine-protein kinase Src (Homo sapiens, UniProt P12931)",
  "sequence (P12931 2-536)": "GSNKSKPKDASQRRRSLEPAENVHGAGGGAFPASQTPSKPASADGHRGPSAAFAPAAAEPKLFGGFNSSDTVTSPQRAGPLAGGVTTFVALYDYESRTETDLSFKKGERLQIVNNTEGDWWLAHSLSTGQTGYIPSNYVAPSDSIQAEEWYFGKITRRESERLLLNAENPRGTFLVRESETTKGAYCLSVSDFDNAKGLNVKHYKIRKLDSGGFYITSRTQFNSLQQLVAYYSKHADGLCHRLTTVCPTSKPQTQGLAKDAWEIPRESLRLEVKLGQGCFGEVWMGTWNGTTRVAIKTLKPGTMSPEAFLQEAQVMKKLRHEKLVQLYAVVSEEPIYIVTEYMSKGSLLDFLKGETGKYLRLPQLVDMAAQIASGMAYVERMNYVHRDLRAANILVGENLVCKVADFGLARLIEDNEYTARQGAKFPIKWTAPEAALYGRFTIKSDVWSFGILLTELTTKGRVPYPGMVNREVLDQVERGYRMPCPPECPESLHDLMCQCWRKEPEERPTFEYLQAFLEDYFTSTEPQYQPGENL",
  "experiment": "IC50 reported as preliminary result; assay not described in the text shown",
  "type": "biochemical",
  "data": [
    {"smiles": "O=C1Cc2[nH]c3ccccc3c2-c2ccccc2N1", "note": "[C, 7,8-dihydroindolo[2,3-d][1]benzazepin-6(5H)-one]", "values": [
      {"measurement": "IC50", "result": 260, "unit": "nM"}
    ]}
  ]
}
